Reference: BindingDB's records for doi:10.1021/jm980035y (Cephalon, 1998)
pKi: −log10 of the molar value. Square brackets hold non-standard residues; d marks the D form. Peptide text beside a SMILES is read from it. * marks the point of attachment. Bn = c1ccc(C*)cc1; Ms = CS(=O)(=O)*

Target: Calpain-2 catalytic subunit (Sus scrofa)
Assay: Inhibitory activity against Calpain-II receptor in porcine kidney

Row | Compound | pKi
1 | CS(=O)(=O)N[C@H](COCc1ccccc1)C(=O)N[C@H](C=O)CCCCNS(=O)(=O)c1ccccc1 [(R)-N-((S)-5-Benzenesulfonylamino-1-formyl-pentyl)-3-benzyloxy-2-methanesulfonylamino-propionamide] | 7.77
2 | CS(=O)(=O)N[C@H](CSCc1ccccc1)C(=O)N[C@H](C=O)Cc1ccccc1 [(S)-N-((S)-1-Benzyl-2-oxo-ethyl)-3-benzylsulfanyl-2-methanesulfonylamino-propionamide] (Ms-[dC](Bn)-Phe-aldehyde) | 8.15
3 | CS(=O)(=O)N[C@H](COCc1ccccc1)C(=O)N[C@H](C=O)Cc1ccc(OCc2ccccc2)cc1 [(R)-3-Benzyloxy-N-[(S)-1-(4-benzyloxy-benzyl)-2-oxo-ethyl]-2-methanesulfonylamino-propionamide] (Ms-[dS](Bn)-Tyr(Bn)-aldehyde) | 8.30
4 | CC(OCc1ccccc1)[C@@H](NS(C)(=O)=O)C(=O)N[C@H](C=O)Cc1ccccc1 (stereo partly drawn) [(R)-N-((S)-1-Benzyl-2-oxo-ethyl)-3-benzyloxy-2-methanesulfonylamino-butyramide] | 8.15
